Values after ≈ are worked out from the molar mass of the structure shown.
Columns and labels:
[1] = pH after 50-fold dilution of glibenclamide 1 mg/ml concentrate into Hartmann's or NaCl; format: physicochemical; conditions: 1 mg/ml in PEG/Ethanol/Buffer (4/1/5)
Experimental: This was found even for experiments in which the concentration of buffer was reduced to 5 mM. In order to determine the final pH of diluted solutions resulting from high pH solutions having high concentrations of SUR-active compounds, measurements of the pH of glibenclamide solutions at various levels of dilution were made. […]

[2] = physchem
Experimental: The solubility of glibenclamide was tested in various solutions and at various pH.

- pH after a 50-fold Dilution ([1]; Diethanolamine 10 mM pH 10, into Hartmann's pH 6.48): 8.88
- pH after a 50-fold Dilution ([1]; Diethanolamine 10 mM pH 10, into NaCl pH 6.82): 9.31
- pH after a 50-fold Dilution ([1]; Meglumine 5 mM pH 8, into Hartmann's pH 6.48 (Expt1)): 6.66
- pH after a 50-fold Dilution ([1]; Meglumine 5 mM pH 8, into Hartmann's pH 6.60): 6.55
- pH after a 50-fold Dilution ([1]; Meglumine 5 mM pH 8, into NaCl pH 4.59): 6.56
- pH after a 50-fold Dilution ([1]; Meglumine 5 mM pH 8, into NaCl pH 6.82): 8.21
- pH after a 50-fold Dilution ([1]; Meglumine 5 mM pH 8.5, into Hartmann's pH 6.48, Expt 2): 6.64
- pH after a 50-fold Dilution ([1]; Meglumine 5 mM pH 9, into Hartmann's pH 6.48 (Expt1)): 6.8
- pH after a 50-fold Dilution ([1]; Meglumine 5 mM pH 9, into Hartmann's pH 6.48, Expt 2): 6.96
- pH after a 50-fold Dilution ([1]; Meglumine 5 mM pH 9, into NaCl pH 6.82): 8.40
- pH after a 50-fold Dilution ([1]; Meglumine 5 mM pH 9.5, into Hartmann's pH 6.48 (Expt1)): 6.93
- pH after a 50-fold Dilution ([1]; Meglumine 5 mM pH 9.5, into Hartmann's pH 6.48, Expt 2): 7.68
- pH after a 50-fold Dilution ([1]; Meglumine 5 mM pH 9.5, into Hartmann's pH 6.60): 8.49
- pH after a 50-fold Dilution ([1]; Meglumine 5 mM pH 9.5, into NaCl pH 4.59): 8.04
- pH after a 50-fold Dilution ([1]; Meglumine 5 mM pH 9.5, into NaCl pH 6.82): 8.71
- pH after a 50-fold Dilution ([1]; Meglumine 5 mM pH 10, into Hartmann's pH 6.48): 8.32
- pH after a 50-fold Dilution ([1]; Meglumine 10 mM pH 9, into Hartmann's pH 6.48): 7.37
- pH after a 50-fold Dilution ([1]; Meglumine 10 mM pH 9, into NaCl pH 4.59): 6.35
- pH after a 50-fold Dilution ([1]; Meglumine 10 mM pH 10, into Hartmann's pH 6.48): 8.98
- pH after a 50-fold Dilution ([1]; Meglumine 10 mM pH 10, into NaCl pH 6.82): 9.54
- solubility ([2]; pH 5.3, aqueous buffer, Solubility): 10 µg/mL (≈ 20.2 µM)
- solubility ([2]; pH 6.2, aqueous buffer, Solubility): 10 µg/mL (≈ 20.2 µM)
- solubility ([2]; pH 6.6, water, Solubility): 70 µg/mL (≈ 142 µM)
- solubility ([2]; pH 6.9): 60 µg/mL (≈ 121 µM)
- solubility ([2]; pH 6.9, aqueous with cosolvent or surfactant or cyclodextrin, Solubility): 90 µg/mL (≈ 182 µM)
- solubility ([2]; pH 7.1, aqueous buffer, Solubility): 10 µg/mL (≈ 20.2 µM)
- solubility ([2]; pH 7.2, aqueous with cosolvent or surfactant or cyclodextrin, Solubility): 80 µg/mL (≈ 162 µM)
- solubility ([2]; pH 7.6, aqueous with cosolvent or surfactant or cyclodextrin, Solubility): 600 µg/mL (≈ 1210 µM)
- solubility ([2]; pH 7.7, aqueous with cosolvent or surfactant or cyclodextrin, Solubility): 10 µg/mL (≈ 20.2 µM)
- solubility ([2]; pH 9.7): 860 µg/mL (≈ 1740 µM)
- solubility ([2]; pH 9.7, aqueous buffer, Solubility): 860 µg/mL (≈ 1740 µM)
- solubility ([2]; pH 9.7, aqueous with cosolvent or surfactant or cyclodextrin, Solubility): 18300 µg/mL (≈ 37000 µM)
- solubility ([2]; pH 9.8): 11200 µg/mL (≈ 22700 µM)
- solubility ([2]; pH 9.8, aqueous with cosolvent or surfactant or cyclodextrin, Solubility): 14600 µg/mL (≈ 29700 µM)
- solubility ([2]; pH 10.1): 2350 µg/mL (≈ 4760 µM)
- solubility ([2]; pH 10.1, aqueous buffer, Solubility): 2350 µg/mL (≈ 4760 µM)
- solubility ([2]; pH 10.5): 15650 µg/mL (≈ 31700 µM)
- solubility ([2]; pH 10.5, aqueous with cosolvent or surfactant or cyclodextrin, Solubility): 13400 µg/mL (≈ 27200 µM)
- solubility ([2]; pH 10.7, aqueous buffer, Solubility): 8120 µg/mL (≈ 16400 µM)
- solubility ([2]; pH 10.7, aqueous with cosolvent or surfactant or cyclodextrin, Solubility): 13900 µg/mL (≈ 28200 µM)
SMILES: COc1ccc(Cl)cc1C(=O)NCCc1ccc(S(=O)(=O)NC(=O)NC2CCCCC2)cc1 [Glibenclamide, N-p-(2-[5-Chloro-2-methoxybenzamido]ethyl) benzenesulfonyl-N′-cyclohexylurea]

Source: patent publication US10688111B2, “Liquid formulations of compounds active at sulfonylurea receptors” (Biogen Chesapeake LLC, priority 2008, dated 2020)
